From patent US20040175773A1, “Screening method based on siah-numb interaction” (priority 2000, published 2004)
Where a SMILES comes first, the peptide text is derived from it. The star is where a group is joined. Cbz = O=C(OCc1ccccc1)*

What was measured:
[1] = system: quantity of Numb protein in 293T cells; test: Western blot of Numb protein in transfected 293T cells with or without proteasome inhibitor; format: cell-based, human; settings: 293T cells cotransfected with Numb, Siah-1 +/- Mdm2; 50 μM MG132 for 6 hours; anti-Numb Western blot, FIG. 2B lanes 6, 7 and 8
Procedure: FIG. 2: Analysis of the effect of the in vivo interaction between Siah and Numb on the levels at which the proteins are expressed. FIG. 2.A. 293T cells were cotransfected with an empty expression vector (column 1) or expressing Numb (column 2), Siah-1 (column 3), Numb and Siah-1 (column 4), Numb and Mdm2 (column 5), and Numb, Siah-1 and Mdm2 (column 6). 48 hours after transfection, a Western blot analysis was carried out using an anti-Numb antibody. A control was also performed using an anti-GFP (green fluorescent protein) antibody as a loading standard on the gel. FIG. 2.B. The Western blot was analysed as previously described in the absence or presence of an inhibitor of the ubiquitin proteasome (MG 132). Without MG 132, the quantity of Numb protein decreases in the presence of Siah-1, with or without Mdm2 (lanes 2, 3 and 4). […]
The cell lysates were separated by SDS-PAGE gel electrophoresis and transferred to a nitrocellulose membrane (Biorad), with this being followed by a Western blot analysis using the Numb polyclonal antibody (Weizmann Institute, Ref. 3465, or reference N80220 from Transduction Laboratories) and the anti-GFP monoclonal antibody (Boehringer, Ref. 1814460) in order to verify standardization of the quantities which were loaded onto the gel. […]

[2] = system: Notch1 nuclear translocation in U937 cells; settings: 10 mM EDTA in PBS at 37° C. for 30 min; labelled 30 min (T=30) after removing the EDTA
Procedure: A. Stable U937 transfectants which were expressing either the control vector (panels 1 to 3) or Siah-1 (panels 4 to 7) were analysed using a confocal microscope for the endogenous immunofluorescence of Notch1. The cells were labelled with an antibody which recognized the cytoplasmic portion of human Notch1, followed by an FITC-conjugated secondary antibody. The Notch immunofluorescence analysis is related either to low magnification (panels 1 and 4) or to high magnification (panels 2, 3, 5, 6 and 7). […] The labelling with propidium iodide was included in order to better visualize the nuclear labelling of Notch1 (panels 3, 6 and 7). […] The bar represents a length of 5 μm.
Cells were incubated in 10 mM EDTA containing PBS at 37° C. for 30 min, and then washed and labelled with anti-Notch1 (intracellular) antibodies either immediately (T=0) or 30 min (T=30) after removing the EDTA. The cells were counterlabelled with propidium iodide in order to visualize the nucleus.

| SMILES | quantity of Numb protein in the presence of Siah-1, with or without Mdm2 [1] | nuclear translocation of Notch1 [2] |
| --- | --- | --- |
| CC(C)C[C@@H](C=O)NC(=O)[C@H](CC(C)C)NC(=O)[C@H](CC(C)C)NC(=O)OCc1ccccc1 [MG 132] (Cbz-Leu-Leu-Leu-aldehyde) | remains constant |  |
| O=C(O)CN(CCN(CC(=O)O)CC(=O)O)CC(=O)O [EDTA] |  | positive Notch1 labelling in the nucleus |
